Among the test systems are CAKI-1 renal; SW-620 colon; HCC-2998 colon; M14 melanoma; SNB-19 CNS; SK-MEL-2 melanoma; COLO 205 colon; EKVX NSCLC; SR leukemia; NCI/ADR-RES ovarian.
What all share (test): NCI anticancer screen, dose series, 48 h

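Where inhibition never reached the appropriate level, the endpoint shown equals the highest concentration tested. Otherwise, values were interpolated linearly from a five-concentration, 48-hour dose response in 96-well plates. GI50: concentration for 50% inhibition of growth. The concentration for full growth arrest is given as TGI.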

With `C1C[OH+]CC[OH+]CCNCC[OH+]CC[OH+]CCN1.N.[Cl-].[Pt+4]`, the GI50 with CAKI-1 renal is 7.5 µM; in the test with SW-620 colon, 7.62 µM; in the test with HCC-2998 colon, 13.5 µM; in the test with M14 melanoma, 5.31 µM; in the test on SNB-19 CNS, 7.22 µM; with SK-MEL-2 melanoma it was 19.9 µM. Moreover, in the test on COLO 205 colon, the GI50 is 36.7 µM. Further, the TGI with CAKI-1 renal is 37.8 µM; with SW-620 colon it was > 100 µM; with HCC-2998 colon, 32.6 µM; in the test on M14 melanoma it was 23.6 µM; with SNB-19 CNS, 62.6 µM; with SK-MEL-2 melanoma, 53 µM. Also, in the test with COLO 205 colon, the TGI was > 100 µM.
For `O=C1/C(=C\c2c[nH]c3ccccc23)c2ccccc2N1c1c(Cl)cccc1Cl`, the GI50 with CAKI-1 renal was 1.43 µM; with SW-620 colon, 1.9 µM; in the test on EKVX NSCLC, 1.63 µM; in the test on HCC-2998 colon it was 1.7 µM; in the test on SR leukemia it was 2.33 µM; in the test on SNB-19 CNS, 2.77 µM. Moreover, the figures for the GI50 with SK-MEL-2 melanoma and with COLO 205 colon were 1.94 µM and 1.8 µM, respectively. For the same compound, the TGI was 4.53 µM in the test with CAKI-1 renal; 3.56 µM with SW-620 colon; 4.91 µM in the test with EKVX NSCLC; 3.12 µM in the test on HCC-2998 colon; 5.16 µM in the test with SR leukemia; 13.5 µM in the test on SNB-19 CNS. Moreover, the TGI in the test with SK-MEL-2 melanoma amounted to 3.65 µM; in the test on COLO 205 colon, 3.27 µM.
For `O=C(CN1CCOCC1)Nc1nc(-c2ccc(Cl)cc2)cs1`, the TGI in the test on CAKI-1 renal, with SW-620 colon, with EKVX NSCLC, in the test on HCC-2998 colon, with M14 melanoma and with SNB-19 CNS was > 100 µM in each case. The values for the TGI in the test on SK-MEL-2 melanoma and in the test on COLO 205 colon were 54.5 µM and 93 µM, respectively.
Take `O=C1CC(c2ccc(O)cc2)C2(O1)C(=O)OC(C(O)CO)C2O` (stereo unspecified): the TGI in the test with CAKI-1 renal, in the test on SW-620 colon, in the test on EKVX NSCLC, in the test on M14 melanoma, in the test on NCI/ADR-RES ovarian and in the test on SNB-19 CNS was > 100 µM in each case. For the same compound, the TGI with SK-MEL-2 melanoma and with COLO 205 colon was > 100 µM in each case.
For the compound `CCCCC(CC)CN=C(N)NC(N)=NCCCCCCN=C(N)NC(N)=NCC(CC)CCCC` (stereo unspecified), the GI50 is 2.93 µM in the test on CAKI-1 renal; 1.74 µM in the test with EKVX NSCLC; 2.49 µM in the test on M14 melanoma; 10.4 µM in the test with NCI/ADR-RES ovarian; 1.82 µM with COLO 205 colon. In addition, the TGI is 10.3 µM in the test on CAKI-1 renal; 4.73 µM with EKVX NSCLC; 6.03 µM in the test with M14 melanoma; 33.6 µM with NCI/ADR-RES ovarian; 3.31 µM with COLO 205 colon.
As to `CN(C)C(=O)OC(Cn1cncn1)c1ccc(Cl)cc1Cl` (stereo unspecified), the TGI in the test with CAKI-1 renal, in the test on SW-620 colon, in the test with EKVX NSCLC, in the test on HCC-2998 colon, in the test with M14 melanoma and in the test with SNB-19 CNS was > 100 µM in each case. For the same compound, the TGI in the test with SK-MEL-2 melanoma and in the test with COLO 205 colon was > 100 µM throughout.
For the compound `COc1ccc(-c2nn3c(-c4cc(F)c(Cl)cc4Cl)nnc3s2)cc1`, the GI50 in the test on CAKI-1 renal was 37.9 µM; in the test with SW-620 colon, 24.6 µM; in the test on EKVX NSCLC it was 34.1 µM; with HCC-2998 colon it was 20.7 µM; in the test with M14 melanoma, 25.6 µM; in the test on NCI/ADR-RES ovarian it was 21.2 µM. Moreover, the GI50 in the test on SNB-19 CNS is 39.4 µM; with SK-MEL-2 melanoma, 25.4 µM; in the test on COLO 205 colon it was 16.5 µM. Moreover, the TGI is > 100 µM in the test on CAKI-1 renal; > 100 µM in the test with SW-620 colon; > 100 µM in the test on EKVX NSCLC; 48.7 µM in the test on HCC-2998 colon; 95.9 µM in the test on M14 melanoma; 99.7 µM with NCI/ADR-RES ovarian. In addition, the TGI with SNB-19 CNS was > 100 µM; with SK-MEL-2 melanoma, 60.1 µM; with COLO 205 colon, 36.8 µM.
On to `COc1ccc(OC)c(NC(=O)C2=C(C)NC(C)=C(C(=O)Nc3cc(OC)ccc3OC)C2c2ccccc2)c1`, for which the TGI in the test on CAKI-1 renal, with SW-620 colon, in the test with EKVX NSCLC, in the test on HCC-2998 colon, in the test on M14 melanoma and in the test on SNB-19 CNS was > 100 µM each time. Besides, the TGI in the test with SK-MEL-2 melanoma and with COLO 205 colon was > 100 µM in each case.
In the case of `CC1C=C(OC(=O)c2ccccc2)C(=O)C(n2cc(F)c(=O)[nH]c2=O)O1` (stereo unspecified), the TGI in the test with CAKI-1 renal, with SW-620 colon, in the test with EKVX NSCLC, in the test on HCC-2998 colon, in the test on M14 melanoma and with SNB-19 CNS was > 100 µM in each case. In addition, the TGI in the test with SK-MEL-2 melanoma and in the test on COLO 205 colon was > 100 µM throughout.
For the compound `C/C(=N\NS(=O)(=O)c1ccccc1)c1ccc(Cl)c(Cl)c1`, the TGI in the test on CAKI-1 renal, in the test on SW-620 colon, in the test on EKVX NSCLC, with HCC-2998 colon, in the test on M14 melanoma and in the test on SR leukemia was > 100 µM each time. Also, the TGI was > 100 µM in the test with SK-MEL-2 melanoma and 85.3 µM with COLO 205 colon.
For the compound `COc1ccc2nc(-c3cccs3)cc(C(O)CN3CCSCC3)c2c1` (stereo unspecified), the TGI with CAKI-1 renal is > 100 µM; in the test on SW-620 colon, 93.7 µM; in the test with EKVX NSCLC, 97.1 µM; with HCC-2998 colon it was 58.9 µM; in the test with M14 melanoma, 40.6 µM; in the test with SNB-19 CNS it was > 100 µM. The TGI in the test with SK-MEL-2 melanoma came to 36 µM; in the test with COLO 205 colon, 53.7 µM.
For `CCc1nccc2c1nc(-c1nonc1N)n2CC`, the GI50 with CAKI-1 renal is 12.2 µM; in the test with SW-620 colon, > 25 µM; in the test on EKVX NSCLC it was > 25 µM; in the test with HCC-2998 colon it was > 25 µM; with M14 melanoma, > 25 µM; in the test on NCI/ADR-RES ovarian, > 25 µM. For the same compound, the GI50 in the test with SNB-19 CNS, with SK-MEL-2 melanoma and with COLO 205 colon was > 25 µM each time. For the same compound, the TGI with CAKI-1 renal, in the test with SW-620 colon, with EKVX NSCLC, in the test with HCC-2998 colon, with M14 melanoma and with NCI/ADR-RES ovarian was > 25 µM in each case. The TGI in the test on SNB-19 CNS, in the test with SK-MEL-2 melanoma and in the test on COLO 205 colon was > 25 µM each time.
For the compound `CN(C)CCCNC(CC#N)CCC#N` (stereo unspecified), the TGI in the test with CAKI-1 renal, in the test on SW-620 colon, in the test on EKVX NSCLC, with HCC-2998 colon, with M14 melanoma and in the test on NCI/ADR-RES ovarian was > 10 µM throughout. The TGI in the test on SNB-19 CNS, in the test with SK-MEL-2 melanoma and in the test with COLO 205 colon was > 10 µM each time.

These data come from PubChem BioAssay (NCI).
